SMILES strings stand for the structures. Read-outs that look alike come from different tables or passages of the source.

The target of data set [1] is T1, α-glucosidase (α-Glu) (Saccharomyces cerevisiae, UniProt P53341).
T1 construct: purchased Shanghai Yuanye Bio-Technology Co., Ltd
Nature of the data set: biochemical. It counts as biochemical. Particulars: for inhibition mode against α-Glu: L-B plots; for Ki: read-out: Ki (inhibition constant, binding to enzyme); for reversibility of inhibition: plots of v vs α-Glu concentration. As to the method:
The same procedure in Section 2.2.1 was used to investigate the inhibition mechanisms of AK and MS against α-Glu. Using the Michaelis–Menten equation, inhibitors with various concentrations were utilized to evaluate the kinetic parameters (Km and Vmax). Moreover, the values of two kinetic constants Ki and Kis were determined using the Lineweaver–Burk (L-B) plots. The L-B equation could be expressed in a double reciprocal form for the mixed-type inhibition mechanism analysis:(1) 1/v=Km/Vmax1+I/Ki1/S+1/Vmax1+I/Kis
Km and Vmax denote the Michaelis–Menten constant and the maximum reaction velocity, respectively. [I] and [S] are the concentrations of the inhibitor and substrate, respectively. Ki and Kis represent the inhibition constants to bind with the enzyme and the enzyme–substrate complex, respectively. The secondary plots of the Y-intercept versus [I] are linearly fitted.

The target in data set [2] is T1, α-glucosidase (α-Glu). As to the kind of experiment: biochemical. As to conditions: Cα-Glu = 0.10 U/mL, CpNPG = 2.08 mM, pH 6.8, 310 K; read-out: IC50 against α-Glu. How it is done:
The stock solutions (2.0 mM) of AK/MS were prepared by dissolving them in dimethyl sulfoxide, respectively. […] The inhibitory activities of AK/MS against α-Glu were assessed in vitro according to the previous method with a slight modification. Firstly, 50 μL of α-Glu and different doses of inhibitors were mixed for 1 h at 310 K. Fifty microliter of pNPG (5.0 mM) was then put in to activate the reaction. After a 30 min incubation, the Na2CO3 solution (0.2 M, 100 μL) was added to stop the reaction. The absorbance of p-nitrophenol converted from pNPG was monitored at 405 nm on an Infinite® M200 PRO plate reader (Tecan, Durham, NC, USA).

In data set [3] the target is T1, α-glucosidase (α-Glu). Nature of the data set: Fluorescence quenching / binding of AK/MS to α-Glu. As to conditions: for Kq (quenching rate constant): Ksv/τ0; for Kd: read-out: Ka (binding constant) (converted); for fluorescence quenching mechanism: Stern–Volmer analysis; for ΔH^0 / ΔS^0: van't Hoff, 298–310 K; for decrease of synchronous fluorescence intensity of α-Glu: Δλ = 60 nm (Trp); for reduction of three-dimensional fluorescence intensity of Peak 1 of α-Glu: α-Glu 2.0 μM, inhibitor 13.0 μM. How it is done:
The fluorescence spectrum of α-Glu was acquired in the spectral region of 300–450 nm on an F97 Pro spectrofluorometer (Lengguang Tech., Shanghai, China) with both excitation and emission slits of 10 nm, when excited at 280 nm. The solution of α-Glu (2.0 μM) was titrated by successively adding different amounts of AK (final concentrations of 4.0, 8.0, 12.0, 16.0, 20.0, 24.0 and 28.0 μM, respectively) or MS (final concentrations of 1.0, 3.0, 5.0, 7.0, 9.0, 11.0 and 13.0 μM, respectively) at 298, 304, and 310 K.
The synchronous fluorescence spectrum was recorded from 270 to 330 nm, when the interval of the emission and excitation wavelength (Δλ = λem − λex) constant was fixed at 15 and 60 nm, respectively.
The three-dimensional fluorescence spectra of α-Glu with or without AK/MS were measured at 298 K. The excitation wavelength range was from 200 to 360 nm, and the emission was collected from 270 to 330 nm, together with an increment of 10 nm. The final concentrations of α-Glu, AK, and MS were 2.0, 13.0, and 13.0 μM, respectively.
All the samples were thoroughly mixed and kept for 6 min before detection, and the inner-filter effect was eliminated to correct the obtained fluorescence data, referring to our previous report.
Thus, the relative mechanism was investigated through the Stern–Volmer equation:(6) F0/F=1+Ksv[Q]=1+kqτ0[Q] where F0 and F are the fluorescence intensities of α-Glu without and with inhibitors, respectively. Ksv, [Q], kq, and τ0 represent the Stern–Volmer quenching constant, the concentration of inhibitor, the biomolecule quenching rate constant, and the average lifetime of protein in the absence of inhibitors, respectively. Specifically, Ksv is determined by the plot of F0/F against [Q], τ0 is about 10^−8 s, and kq is equal to Ksv/τ0.
The binding constants (Ka) of the α-Glu-AK and α-Glu-MS systems were evaluated by the following equation:(7) logF0−F/F=nlogKa−nlog1/[Qt]−(F0−F)[Pt]/F0 where [Pt] and [Qt] represent the total concentrations of α-Glu and the inhibitor, respectively. n is the number of binding sites.
To better reveal the binding mechanism of AK/MS to α-Glu, the critical forces between them were also explored. Typically, the binding forces between proteins and ligands could be estimated by the calculation of the thermodynamic parameters using the following equations:(8) logKa=−ΔH^0/2.303RT+ΔS^0/2.303R (9) ΔG^0=ΔH^0−TΔS^0 where T represents the absolute temperature (in Kelvin), and R is the universal gas constant (8.314 J mol^−1 K^−1). ΔH^0 and ΔS^0 stand for the enthalpy change and entropy change, respectively, and they could be calculated by the slope and the y-axis intercept in the linearly fitted plot between lnKa and 1/T (Figure S4A,B). Then, the free energy change (ΔG^0) is obtained according to Equation (9).

Data set [4] can be described thus: Solubility and light sensitivity (statement, no method).
Data set [5] has as its system α-Glu. Particulars: read-out: IC50 against α-Glu, cited from earlier work.
The mark [6] stands for this setting: mixed-type, L-B secondary plots.

T1 sequence (P53341 whole entry): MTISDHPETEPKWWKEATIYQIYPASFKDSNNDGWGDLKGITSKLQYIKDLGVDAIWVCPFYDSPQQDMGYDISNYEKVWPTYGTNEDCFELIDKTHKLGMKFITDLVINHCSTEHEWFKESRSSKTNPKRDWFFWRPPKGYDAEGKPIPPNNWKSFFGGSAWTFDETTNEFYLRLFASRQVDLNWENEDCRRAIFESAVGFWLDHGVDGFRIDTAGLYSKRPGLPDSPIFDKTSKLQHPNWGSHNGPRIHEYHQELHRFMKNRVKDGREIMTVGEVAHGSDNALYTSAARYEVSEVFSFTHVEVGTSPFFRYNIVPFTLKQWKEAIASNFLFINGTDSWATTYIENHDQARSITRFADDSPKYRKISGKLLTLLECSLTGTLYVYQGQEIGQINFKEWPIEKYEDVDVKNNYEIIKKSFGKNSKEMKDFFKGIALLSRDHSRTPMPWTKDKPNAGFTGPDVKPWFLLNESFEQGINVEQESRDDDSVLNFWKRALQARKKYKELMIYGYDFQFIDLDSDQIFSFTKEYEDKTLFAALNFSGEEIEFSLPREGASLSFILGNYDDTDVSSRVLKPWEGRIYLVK

The term Ki denotes a dissociation constant, usually derived from enzyme kinetics or from competition with a known ligand. What is called IC50 is the midpoint of a concentration-inhibition curve. In the case of `C/C=C/C1=CC2=C(CO1)C(=O)[C@]1(C)OC(=O)[C@H](C(=O)CCCCCCC)[C@H]1C2` [AK, ankaflavin], in data set [1], the “inhibition mode against α-Glu” value is reported as “mixed type” and the reversibility of inhibition result is given as “reversible inhibitors”. Further, the “Vmax of α-Glu” value in data set [1] (inhibitor 30 μM) was 4.02 ± 0.07 µM/min. Moreover, in data set [1] (inhibitor 40 μM), the “Vmax of α-Glu” value was 3.86 ± 0.04 µM/min. In data set [1] (setting [6]), the “Kis (inhibition constant, binding to enzyme–substrate complex)” value amounted to 3.45 ± 0.06 µM and the Ki was found to be 57.8 ± 5.89 µM. Also, the IC50 in data set [2] amounted to 127 ± 2.5 µM. In data set [3] (298 K), the “Ksv (Stern–Volmer quenching constant)” value is listed as 2.23 ± 0.12 10^4 M^−1, the “Kq (quenching rate constant)” value was 2.23 ± 0.12 10^12 M^−1s^−1, the Kd is 58.1 µM and the “reduction of three-dimensional fluorescence intensity of Peak 1 of α-Glu” value turned out to be 24.9%. In addition, in data set [3] (304 K), the “Ksv (Stern–Volmer quenching constant)” value is 2.08 ± 0.07 10^4 M^−1, the “ΔG^0” value was -2.488 ± 0.0813 kcal/mol, the “Kq (quenching rate constant)” value is on record as 2.08 ± 0.07 10^12 M^−1s^−1 and the Kd is 63.3 µM. In data set [3] (310 K), the “Ksv (Stern–Volmer quenching constant)” value is 1.91 ± 0.08 10^4 M^−1, the “ΔG^0” value was -2.519 ± 0.0526 kcal/mol, the “Kq (quenching rate constant)” value was 1.91 ± 0.08 10^12 M^−1s^−1 and the Kd was 69.4 µM. In data set [3], the fluorescence quenching mechanism result is listed as “static quenching”, the “ΔH^0” value was -0.841 ± 0.0048 kcal/mol, the “ΔS^0” value worked out at 22.66 ± 0.84 J mol^−1K^−1 and the “decrease of synchronous fluorescence intensity of α-Glu” value is given as 59.4%.
Consider `C/C=C/C1=CC2=C(CO1)C(=O)[C@]1(C)OC(=O)[C@H](C(=O)CCCCC)[C@H]1C2` [MS, monascin], for which, in data set [1], the “inhibition mode against α-Glu” value is “mixed type” and the reversibility of inhibition entry was “reversible inhibitors”. The “Vmax of α-Glu” value in data set [1] (inhibitor 100 μM) stood at 1.85 ± 0.04 µM/min. Besides, in data set [1] (inhibitor 200 μM), the “Vmax of α-Glu” value came to 1.76 ± 0.08 µM/min. In addition, in data set [1] (setting [6]), the inhibition constant (Ki) was 298 ± 18.1 µM. Besides, in data set [4], the sensitivity to light result is reported as “sensitive to light” and the solubility entry is “poor”. In addition, in data set [2], the IC50 came out at 302.6 ± 2.5 µM. Moreover, in data set [3] (298 K), the “Ksv (Stern–Volmer quenching constant)” value is listed as 2.09 ± 0.02 10^4 M^−1, the “Kq (quenching rate constant)” value was 2.09 ± 0.02 10^12 M^−1s^−1, the Kd was 70.9 µM and the “reduction of three-dimensional fluorescence intensity of Peak 1 of α-Glu” value is on record as 20.0%. Besides, in data set [3] (304 K), the “Ksv (Stern–Volmer quenching constant)” value was 1.94 ± 0.04 10^4 M^−1, the “ΔG^0” value was -2.536 ± 0.0048 kcal/mol, the “Kq (quenching rate constant)” value is recorded as 1.94 ± 0.04 10^12 M^−1s^−1 and the Kd was 76.3 µM. Also, in data set [3] (310 K), the “Ksv (Stern–Volmer quenching constant)” value is listed as 1.58 ± 0.03 10^4 M^−1, the “ΔG^0” value was -2.562 ± 0.0072 kcal/mol, the “Kq (quenching rate constant)” value is listed as 1.58 ± 0.03 10^12 M^−1s^−1 and the Kd is 80.6 µM. In data set [3], the fluorescence quenching mechanism result is “static quenching”, the “ΔH^0” value was -1.18 ± 0.0239 kcal/mol, the “ΔS^0” value came out at 18.68 ± 3.20 J mol^−1K^−1 and the “decrease of synchronous fluorescence intensity of α-Glu” value turned out to be 33.9%.
In the case of `C[C@H]1O[C@H](O[C@H]2[C@H](O)[C@@H](O)[C@@H](O[C@H]3[C@H](O)[C@@H](O)C(O)O[C@@H]3CO)O[C@@H]2CO)[C@H](O)[C@@H](O)[C@@H]1N[C@H]1C=C(CO)[C@@H](O)[C@H](O)[C@H]1O` (stereo partly shown) [acarbose], the IC50 in data set [5] (previous work) was 376 ± 4.4 µM.
`O=c1cc(-c2ccc(O)cc2)oc2cc(O)cc(O)c12` [apigenin]: the 50% inhibitory concentration (IC50) in data set [5] is 10.5 ± 0.05 µM.

Source of the values: PMC11120408 (Foods, 2024).
